Experimental data published in patent US20260232644A1, “Compositions Comprising an Inhibitor of Galectin-3” (University of Liverpool, priority 2023, published 2026).
Where a name gives a salt, the structure may show the parent alone.

Target: T1, full-length galectin-3 (Homo sapiens, UniProt P17931)
T1 construct: made in house; host or cells: E. coli
Test: Tryptophan Fluorescence Spectroscopy (TFS) binding affinity, full-length Galectin-3
Protocol: The binding affinity of the inhibitors to galectin-3 was determined by Intrinsic Tryptophan Fluorescence Spectroscopy (TFS) exactly as we described recently [Sindrewicz, P., et al., Intrinsic tryptophan fluorescence spectroscopy reliably determines galectin-ligand interactions. Sci Rep, 2019. 9(1): p. 11851]. The Galectin-3 concentration used was 10 μM and the inhibitor titration concentrations were from 0 to 224 μM. DMSO/control buffer (PBS with 2 mM EDTA) titrations were performed and used for background subtraction.

T1 sequence (P17931 whole entry): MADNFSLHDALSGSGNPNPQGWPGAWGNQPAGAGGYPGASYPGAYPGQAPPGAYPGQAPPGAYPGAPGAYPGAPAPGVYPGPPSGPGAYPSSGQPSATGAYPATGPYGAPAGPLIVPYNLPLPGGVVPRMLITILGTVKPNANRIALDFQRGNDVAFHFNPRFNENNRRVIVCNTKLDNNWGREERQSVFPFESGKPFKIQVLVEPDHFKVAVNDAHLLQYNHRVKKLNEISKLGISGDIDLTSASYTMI

NC1CCN(c2nc3c(cc2F)c(=O)c(C(=O)O)cn3-c2ccc(F)cc2F)C1 (stereo not shown) [Formula X, Tosufloxacin tosylate]
Kd: 5 to 7 µM
